Data as given in PubChem BioAssay (NCI).
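Step 1: Grow cells in 96-well plates. Step 2: Expose to compound for 48 hours at 5 concentrations. Step 3: Interpolate endpoints linearly; if unreached, use highest concentration. TGI marks complete inhibition of growth.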 *1 amine or outer side, *2 acyl side, *3 side chain or, on linkers, in order; H or OH if unused. Where a SMILES comes first, the peptide text is derived from it. The star is where a group is joined. γGlu = O=C(O)[CH](CCC(=O)[*:2])N[*:1]; NHOH = ON*

Tests used:
Experiment in all cases: NCI anticancer screen, dose series, 48 h
ACHN renal = system: ACHN renal
EKVX NSCLC = system: EKVX NSCLC
HCT-116 colon = system: HCT-116 colon
HCT-15 colon = system: HCT-15 colon
HOP-62 NSCLC = system: HOP-62 NSCLC
HS 578T breast = system: HS 578T breast
NCI-H460 lung = system: NCI-H460 lung
NCI/ADR-RES ovarian = system: NCI/ADR-RES ovarian
OVCAR-3 ovarian = system: OVCAR-3 ovarian
OVCAR-4 ovarian = system: OVCAR-4 ovarian
RPMI-8226 leukemia = system: RPMI-8226 leukemia
SF-539 CNS = system: SF-539 CNS
SK-MEL-5 melanoma = system: SK-MEL-5 melanoma
SNB-75 CNS = system: SNB-75 CNS
SR leukemia = system: SR leukemia
TK-10 renal = system: TK-10 renal
UACC-257 melanoma = system: UACC-257 melanoma
HT29 colon = system: HT29 colon
MALME-3M melanoma = system: MALME-3M melanoma
SK-MEL-2 melanoma = system: SK-MEL-2 melanoma

SMILES | TGI (ACHN renal) | TGI (EKVX NSCLC) | TGI (HCT-116 colon) | TGI (HCT-15 colon) | TGI (HOP-62 NSCLC) | TGI (HS 578T breast) | TGI (NCI-H460 lung) | TGI (NCI/ADR-RES ovarian) | TGI (OVCAR-3 ovarian) | TGI (OVCAR-4 ovarian) | TGI (RPMI-8226 leukemia) | TGI (SF-539 CNS) | TGI (SK-MEL-5 melanoma) | TGI (SNB-75 CNS) | TGI (SR leukemia) | TGI (TK-10 renal) | TGI (UACC-257 melanoma) | TGI (HT29 colon) | TGI (MALME-3M melanoma) | TGI (SK-MEL-2 melanoma)
COC(=O)c1ccc(/C=C2\Oc3cc(O)ccc3C2=O)cc1 | > 100 µM | > 100 µM | > 100 µM | > 100 µM | > 100 µM | > 100 µM | > 100 µM | > 100 µM | > 100 µM | > 100 µM | > 100 µM | > 100 µM | > 100 µM | > 100 µM | > 100 µM | > 100 µM | > 100 µM | – | – | –
Cc1cc2cc3ccccc3cc2c(=O)[nH]1 | > 10 µM | > 10 µM | > 10 µM | – | – | > 10 µM | > 10 µM | – | > 10 µM | > 10 µM | – | > 10 µM | – | > 10 µM | > 10 µM | > 10 µM | > 10 µM | > 10 µM | – | –
Cc1cccc(/C=N/NC(=S)N(C)CCc2ccccn2)n1 | 1.15 µM | > 100 µM | > 100 µM | > 100 µM | – | > 100 µM | > 52.5 µM | – | > 100 µM | > 100 µM | 0.388 µM | 6.8 µM | 9.4 µM | 21.9 µM | > 100 µM | > 100 µM | 45.6 µM | > 100 µM | > 54 µM | > 100 µM
C=C(CO)[C@H]1Oc2ccc(C(C)=O)cc2[C@@H]1O | > 100 µM | > 100 µM | > 100 µM | > 100 µM | > 100 µM | > 100 µM | > 100 µM | – | > 100 µM | > 100 µM | > 100 µM | > 100 µM | > 100 µM | > 100 µM | > 100 µM | > 100 µM | > 100 µM | > 100 µM | > 100 µM | > 100 µM
CCOC(=O)C(NC(=O)c1cccc(Cl)c1)(N1CCN(c2cc3c(cc2F)c(=O)c(C(=O)O)cn3C2CC2)CC1)C(F)(F)F (configuration not stated) | 31 µM | 55.2 µM | 25.5 µM | – | 50 µM | 58 µM | 42.9 µM | – | 29.5 µM | 39 µM | 23.6 µM | 31.3 µM | 25.5 µM | 50.7 µM | 25.8 µM | – | – | – | 32.2 µM | 29.8 µM
O=C(N/N=C/c1ccc(Cl)cc1)c1ccccc1Nc1ccccc1C(=O)N/N=C/c1ccc(Cl)cc1 | > 100 µM | > 100 µM | > 100 µM | > 100 µM | > 100 µM | – | > 100 µM | > 100 µM | > 100 µM | > 100 µM | > 100 µM | – | > 100 µM | > 100 µM | > 100 µM | > 100 µM | > 100 µM | > 100 µM | > 100 µM | > 100 µM
CCOC(=O)CNC(=O)C(CCC(=O)NO)NC(=O)CCC(N)C(=O)O (configuration not stated) (γGlu-Glu(NHOH)-Gly-OEt; configuration not given here) | > 100 µM | > 100 µM | > 100 µM | > 100 µM | > 100 µM | > 100 µM | > 100 µM | > 100 µM | > 100 µM | > 100 µM | > 100 µM | > 100 µM | > 100 µM | > 100 µM | – | > 100 µM | > 100 µM | > 100 µM | – | > 100 µM
CC(C)(C)OC(=O)NC(CS(=O)(=O)O)C(=O)O (configuration not stated) | > 100 µM | > 100 µM | > 100 µM | > 100 µM | > 100 µM | – | > 100 µM | > 100 µM | > 100 µM | > 100 µM | > 100 µM | > 100 µM | > 100 µM | > 100 µM | > 100 µM | > 100 µM | > 100 µM | > 100 µM | > 100 µM | > 100 µM
CNc1ncnc2c1cnn2CCCCO | > 100 µM | > 100 µM | > 100 µM | > 100 µM | > 100 µM | > 100 µM | > 100 µM | – | > 100 µM | > 100 µM | > 100 µM | > 100 µM | > 100 µM | – | > 100 µM | > 100 µM | > 100 µM | > 100 µM | > 100 µM | > 100 µM
O=C(O)c1nc2ccccc2nc1NCc1ccc(F)cc1 | – | > 100 µM | > 100 µM | 42.8 µM | > 100 µM | > 100 µM | > 100 µM | > 100 µM | > 100 µM | – | > 100 µM | > 100 µM | > 100 µM | > 100 µM | > 100 µM | > 100 µM | > 100 µM | > 100 µM | – | > 100 µM
